Results taken from ChEMBL document CHEMBL3390838, “Synthesis, anti-proliferative and proapoptotic activity of novel oleanolic acid azaheterocyclic derivatives” (Medchemcomm, 2012).
Calls of active or inactive are those of the source. No cut-off for these calls is given here.

Assays:
MDA-MB-231 = experiment: Cytotoxicity against human MDA-MB-231 cells after 72 hrs by MTT assay; format: functional, cell-based; settings: MDA-MB-231, 72 h
K562 = experiment: Cytotoxicity against human K562 cells after 72 hrs by MTT assay; format: functional, cell-based; settings: K562, 72 h
[1] = Cytotoxicity against human Bel7404 cells after 72 hrs by MTT assay; format: functional, cell-based; settings: BEL-7404, 72 h
[2] = Cytotoxicity against human HL60 cells after 72 hrs by MTT assay; format: functional, cell-based; settings: HL-60, 72 h
BEL-7404 tumor cell line [3] = experiment: Induction of apoptosis in human Bel7404 cells assessed as decrease in procaspase 3 protein level at 60 uM at 36 hrs by Western blot analysis relative to control; format: functional
BEL-7404 tumor cell line [4] = experiment: Induction of apoptosis in human Bel7404 cells assessed as increase in Bax protein expression at 60 uM at 36 hrs by Western blot analysis relative to control; format: functional
[5] = Cell cycle arrest in human Bel7404 cells assessed as accumulation at G0/G1 phase at 40 uM after 24 hrs by PI-based flow cytometry ( Rvb = 56.50 % ); format: functional; settings: BEL-7404
[6] = Cell cycle arrest in human Bel7404 cells assessed as decrease in G2/M phase after 24 hrs by PI-based flow cytometry; format: functional; settings: BEL-7404
[7] = Cytotoxicity against human L02 cells at 20 to 160 uM after 72 hrs by MTT assay; format: cell-based; settings: l02, 72 h
BEL-7404 tumor cell line [8] = experiment: Induction of apoptosis in human Bel7404 cells assessed as increase in Bax protein expression at 60 uM at 48 hrs by Western blot analysis relative to control; format: functional
BEL-7404 tumor cell line [9] = experiment: Induction of apoptosis in human Bel7404 cells assessed as increase in Bax protein expression at 60 uM at 24 hrs by Western blot analysis relative to control; format: functional
BEL-7404 tumor cell line [10] = experiment: Induction of apoptosis in human Bel7404 cells assessed as nuclear shrinking at 60 uM after 48 hrs using Hoechst staining by fluorescence microscopy; format: functional, cell-based
[11] = Cell cycle arrest in human Bel7404 cells assessed as accumulation at G2/M phase at 40 uM after 24 hrs by PI-based flow cytometry ( Rvb = 0.11 % ); format: functional; settings: BEL-7404
[12] = Cell cycle arrest in human Bel7404 cells assessed as accumulation at S phase at 60 uM after 24 hrs by PI-based flow cytometry ( Rvb = 43.38 % ); format: functional; settings: BEL-7404
[13] = Cell cycle arrest in human Bel7404 cells assessed as accumulation at G2/M phase at 60 uM after 24 hrs by PI-based flow cytometry ( Rvb = 0.11 % ); format: functional; settings: BEL-7404
BEL-7404 tumor cell line [14] = experiment: Induction of apoptosis in human Bel7404 cells assessed as increase in procaspase 9 protein level at 60 uM at 12 hrs by Western blot analysis relative to control; format: functional
BEL-7404 tumor cell line [15] = experiment: Induction of apoptosis in human Bel7404 cells assessed as reduction in Bcl2 protein expression at 60 uM at 24 hrs by Western blot analysis relative to control; format: functional
BEL-7404 tumor cell line [16] = experiment: Induction of apoptosis in human Bel7404 cells assessed as reduction in Bcl2 protein expression at 60 uM at 48 hrs by Western blot analysis relative to control; format: functional
BEL-7404 tumor cell line [17] = experiment: Induction of apoptosis in human Bel7404 cells assessed as increase in cytochrome c protein level at 60 uM at 12 hrs by Western blot analysis relative to control; format: functional
BEL-7404 tumor cell line [18] = experiment: Induction of apoptosis in human Bel7404 cells assessed as reduction in Bcl2 protein expression at 60 uM at 12 hrs by Western blot analysis relative to control; format: functional
[19] = Cell cycle arrest in human Bel7404 cells assessed as accumulation at S phase at 40 uM after 24 hrs by PI-based flow cytometry ( Rvb = 43.38 % ); format: functional; settings: BEL-7404
[20] = Cell cycle arrest in human Bel7404 cells assessed as accumulation at G0/G1 phase at 20 uM after 24 hrs by PI-based flow cytometry ( Rvb = 56.50 % ); format: functional; settings: BEL-7404
BEL-7404 tumor cell line [21] = experiment: Induction of apoptosis in human Bel7404 cells assessed as reduction in Bcl2 protein expression at 60 uM at 36 hrs by Western blot analysis relative to control; format: functional
BEL-7404 tumor cell line [22] = experiment: Induction of apoptosis in human Bel7404 cells assessed as apoptotic bodies at 60 uM after 48 hrs using Hoechst staining by fluorescence microscopy; format: functional, cell-based
BEL-7404 tumor cell line [23] = experiment: Induction of apoptosis in human Bel7404 cells assessed as nuclear condensation at 60 uM after 48 hrs using Hoechst staining by fluorescence microscopy; format: functional, cell-based
BEL-7404 tumor cell line [24] = experiment: Induction of apoptosis in human Bel7404 cells assessed as increase in cytochrome c protein level at 60 uM at 36 hrs by Western blot analysis relative to control; format: functional
[25] = Cell cycle arrest in human Bel7404 cells assessed as accumulation at S phase at 20 uM after 24 hrs by PI-based flow cytometry ( Rvb = 43.38 % ); format: functional; settings: BEL-7404
[26] = Cell cycle arrest in human Bel7404 cells assessed as increase in G0/G1 phase after 24 hrs by PI-based flow cytometry; format: functional; settings: BEL-7404
[27] = Cell cycle arrest in human Bel7404 cells assessed as accumulation at G0/G1 phase at 60 uM after 24 hrs by PI-based flow cytometry ( Rvb = 56.50 % ); format: functional; settings: BEL-7404
BEL-7404 tumor cell line [28] = experiment: Induction of apoptosis in human Bel7404 cells assessed as increase in procaspase 9 protein level at 60 uM at 36 hrs by Western blot analysis relative to control; format: functional
BEL-7404 tumor cell line [29] = experiment: Induction of apoptosis in human Bel7404 cells assessed as increase in procaspase 9 protein level at 60 uM at 48 hrs by Western blot analysis relative to control; format: functional
[30] = Cell cycle arrest in human Bel7404 cells assessed as accumulation at G2/M phase at 20 uM after 24 hrs by PI-based flow cytometry ( Rvb = 0.11 % ); format: functional; settings: BEL-7404
BEL-7404 tumor cell line [31] = experiment: Induction of apoptosis in human Bel7404 cells assessed as increase in cytochrome c protein level at 60 uM at 48 hrs by Western blot analysis relative to control; format: functional
BEL-7404 tumor cell line [32] = experiment: Induction of apoptosis in human Bel7404 cells assessed as membrane blebbing at 60 uM after 48 hrs using Hoechst staining by fluorescence microscopy; format: functional, cell-based
BEL-7404 tumor cell line [33] = experiment: Induction of apoptosis in human Bel7404 cells assessed as increase in procaspase 9 protein level at 60 uM at 24 hrs by Western blot analysis relative to control; format: functional
[34] = Cell cycle arrest in human Bel7404 cells assessed as decrease in S phase after 24 hrs by PI-based flow cytometry; format: functional; settings: BEL-7404
BEL-7404 tumor cell line [35] = experiment: Induction of apoptosis in human Bel7404 cells assessed as decrease in procaspase 3 protein level at 60 uM at 48 hrs by Western blot analysis relative to control; format: functional
BEL-7404 tumor cell line [36] = experiment: Induction of apoptosis in human Bel7404 cells assessed as increase in Bax protein expression at 60 uM at 12 hrs by Western blot analysis relative to control; format: functional
BEL-7404 tumor cell line [37] = experiment: Induction of apoptosis in human Bel7404 cells assessed as decrease in procaspase 3 protein level at 60 uM at 12 hrs by Western blot analysis relative to control; format: functional
BEL-7404 tumor cell line [38] = experiment: Induction of apoptosis in human Bel7404 cells assessed as increase in cytochrome c protein level at 60 uM at 24 hrs by Western blot analysis relative to control; format: functional
BEL-7404 tumor cell line [39] = experiment: Induction of apoptosis in human Bel7404 cells assessed as decrease in procaspase 3 protein level at 60 uM at 24 hrs by Western blot analysis relative to control; format: functional

Question: With `CC1(C)CC[C@]2(C(=O)O)CC[C@]3(C)C(=CC[C@@H]4[C@@]5(C)CC[C@H](O)C(C)(C)[C@@H]5CC[C@]43C)[C@@H]2C1` [OLEANOLIC_ACID] as the molecule, how does the IC50 (MDA-MB-231) read?
Answer: 67.9 µM

Question: And the IC50 (K562)?
Answer: 58.1 µM

Question: What about the IC50 [1] of the same molecule?
Answer: 57.9 µM

Question: What about the IC50 [2] of the same molecule?
Answer: 54.6 µM

Question: Which “fold change (FC)” value (BEL-7404 tumor cell line [3]) does the source give for `CC1(C)CC[C@]2(C(=O)O)CC[C@]3(C)C(=CC[C@@H]4[C@@]5(C)Cc6cnc(N)nc6C(C)(C)[C@@H]5CC[C@]43C)[C@@H]2C1` here?
Answer: 0.4

Question: What about the “fold change (FC)” value (BEL-7404 tumor cell line [4]) of the same molecule?
Answer: 7.6

Question: And the Activity [5]?
Answer: 62.9%

Question: What about the Activity [6] of the same molecule?
Answer: Dose-dependent effect

Question: What about the Activity [7] of the same molecule?
Answer: Non-toxic

Question: And the “fold change (FC)” value (BEL-7404 tumor cell line [8])?
Answer: 7.7

Question: And the “fold change (FC)” value (BEL-7404 tumor cell line [9])?
Answer: 1.5

Question: And the Activity (BEL-7404 tumor cell line [10])?
Answer: Active

Question: And the Activity [11]?
Answer: 0%

Question: And the Activity [12]?
Answer: 27%

Question: What about the Activity [13] of the same molecule?
Answer: 0%

Question: And the “fold change (FC)” value (BEL-7404 tumor cell line [14])?
Answer: 0.7

Question: And the “fold change (FC)” value (BEL-7404 tumor cell line [15])?
Answer: 0.5

Question: And the “fold change (FC)” value (BEL-7404 tumor cell line [16])?
Answer: 0.4

Question: And the “fold change (FC)” value (BEL-7404 tumor cell line [17])?
Answer: 1.3

Question: What about the “fold change (FC)” value (BEL-7404 tumor cell line [18]) of the same molecule?
Answer: 1

Question: What about the Activity [19] of the same molecule?
Answer: 37.1%

Question: What about the IC50 (MDA-MB-231) of the same molecule?
Answer: 44.8 µM

Question: What about the Activity [20] of the same molecule?
Answer: 58.4%

Question: What about the “fold change (FC)” value (BEL-7404 tumor cell line [21]) of the same molecule?
Answer: 0.4

Question: What about the Activity (BEL-7404 tumor cell line [22]) of the same molecule?
Answer: Active

Question: What about the Activity (BEL-7404 tumor cell line [23]) of the same molecule?
Answer: Active

Question: What about the “fold change (FC)” value (BEL-7404 tumor cell line [24]) of the same molecule?
Answer: 2.7

Question: And the Activity [25]?
Answer: 41.6%

Question: What about the Activity [26] of the same molecule?
Answer: Dose-dependent effect

Question: What about the Activity [27] of the same molecule?
Answer: 73%

Question: And the “fold change (FC)” value (BEL-7404 tumor cell line [28])?
Answer: 0.2

Question: What about the “fold change (FC)” value (BEL-7404 tumor cell line [29]) of the same molecule?
Answer: 0.1

Question: And the Activity [30]?
Answer: 0%

Question: What about the “fold change (FC)” value (BEL-7404 tumor cell line [31]) of the same molecule?
Answer: 7

Question: And the Activity (BEL-7404 tumor cell line [32])?
Answer: Active

Question: And the “fold change (FC)” value (BEL-7404 tumor cell line [33])?
Answer: 0.6

Question: And the Activity [34]?
Answer: Dose-dependent effect

Question: What about the IC50 (K562) of the same molecule?
Answer: 39.3 µM

Question: What about the “fold change (FC)” value (BEL-7404 tumor cell line [35]) of the same molecule?
Answer: 0.1

Question: What about the IC50 [1] of the same molecule?
Answer: 35.1 µM

Question: What about the IC50 [2] of the same molecule?
Answer: 42.6 µM

Question: What about the “fold change (FC)” value (BEL-7404 tumor cell line [36]) of the same molecule?
Answer: 1.5

Question: What about the “fold change (FC)” value (BEL-7404 tumor cell line [37]) of the same molecule?
Answer: 0.8

Question: What about the “fold change (FC)” value (BEL-7404 tumor cell line [38]) of the same molecule?
Answer: 2.6

Question: What about the “fold change (FC)” value (BEL-7404 tumor cell line [39]) of the same molecule?
Answer: 0.6

Question: Which IC50 (MDA-MB-231) does the source give for `CC1(C)CC[C@]2(C(=O)O)CC[C@]3(C)C(=CC[C@@H]4[C@@]5(C)Cc6cnoc6C(C)(C)[C@@H]5CC[C@]43C)[C@@H]2C1` here?
Answer: 53.7 µM

Question: And the IC50 (K562)?
Answer: 11.4 µM

Question: What about the IC50 [1] of the same molecule?
Answer: 36 µM

Question: And the IC50 [2]?
Answer: 42.1 µM

Question: For `CC1(C)CC[C@]2(C(=O)O)CC[C@]3(C)C(=CC[C@@H]4[C@@]5(C)Cc6nonc6C(C)(C)[C@@H]5CC[C@]43C)[C@@H]2C1`, which IC50 (MDA-MB-231) is on record?
Answer: 53.6 µM

Question: What about the IC50 (K562) of the same molecule?
Answer: 49.7 µM

Question: And the IC50 [1]?
Answer: 30.9 µM

Question: What about the IC50 [2] of the same molecule?
Answer: 46.1 µM

Question: For `CC(=O)n1nc2c(n1)C(C)(C)[C@@H]1CC[C@]3(C)[C@H](CC=C4[C@@H]5CC(C)(C)CC[C@]5(C(=O)O)CC[C@]43C)[C@@]1(C)C2`, which IC50 (MDA-MB-231) is on record?
Answer: 61.7 µM

Question: What about the IC50 (K562) of the same molecule?
Answer: 67.6 µM

Question: What about the IC50 [1] of the same molecule?
Answer: 45.1 µM

Question: And the IC50 [2]?
Answer: 76.6 µM
